The source of these data is patent publication US11660285B2, “Triptolide acrylate, preparation method therefor and use thereof” (GUANGDONG PROVINCIAL HOSPITAL OF TCM, priority 2019, dated 2023).

Data set [1] has as its system BEL-7402 liver cancer cells. Nature of the data set: Cell apoptosis by flow cytometry, BEL-7402. It counts as cell-based. To be noted: BEL-7402, 0, 50 and 100 nM, 24 h, FIG. 10 A. On the procedure:
(§1) 2.3 Detection of Cell Apoptosis by Flow Cytometry
(§2) Liver cancer cells in the logarithmic growth phase were taken and inoculated in a 12-well plate at 5×10^5 cells per well. The cells treated with triptolide acrylate (hereinafter referred to as TPO) and triptolide triol (hereinafter referred to as TP-3-OH) with final concentrations of 0, 50 and 100 nM were used. After 24 h of treatment, the cells were digested and collected with 0.25% EDTA-free pancreatin, washed twice with pre-cooled PBS, and resuspended with 300 μL 1× Binding Buffer. 5 μL FITC Annexin V and 5 μL PI were added to each tube of cell suspension and incubated at a room temperature for 5 min in the dark, and the flow cytometry was used for detection within 1 h.

Data set [2] has as its system HepG2 subcutaneous implanted tumor (HepG2-Luc). Nature of the data set: Inhibition experiment on HepG2 subcutaneous implanted tumor in nude mice. It counts as in vivo. The method, then:
2.1 Establishment of Animal Models
Establishment of HepG2-Luc cell line stably expressing luciferase: HepG2 cells in the logarithmic growth phase were taken and placed into a 24-well plate at 1×10^5/well, and cultured overnight to make the cells fully adherent. An original medium was replaced with 2 mL of fresh medium containing 6 μg/mL polybrene, about 1×10^5 transfection units of recombinant lentiviral particles stably expressing luciferase were added, and after incubation was performed for 4 h at 37° C., 2 mL of fresh medium was added to dilute the polybrene. The culture was continued, and a virus-containing medium was replaced with a fresh medium. The culture was continued, a medium containing puromycin was replaced for resistance screening, drug-resistant clones were picked and screened for two weeks, and finally, a cell line HepG2-Luc stably expressing luciferase was obtained.
Construction of bear mice by HepG2-Luc cell line: the cryopreserved HepG2-Luc cells were recovered to a 100 cm^2 culture flask, cultured in vitro to the logarithmic growth phase and digested with 0.25% trypsin containing EDTA, the cells were collected and centrifuged at 1000 rpm for 3 min at a room temperature, the supernatant was discarded, the cells were washed with a serum-free DMEM medium, and the cell viability was detected by a trypan blue exclusion assay (only if the proportion of viable cells exceeded 95%, the experimental requirements were met). A small amount of the serum-free DMEM medium was added to resuspend the cells, and the cells were counted. […]
Detection of tumor growth by animal in-vivo imaging system: each nude mouse was intraperitoneally injected with 150 μL of 30 mg/kg […] substrate and observed for 15 min, the nude mouse was anesthetized with diethyl ether in an induction box for 5 min, the anesthetized nude mouse was quickly transferred into an observation box, the head of the nude mouse was aligned and fixed in a conical nasal plug, parameters were set for fluorescence imaging (if there was tumor growth, fluorescence signals with different intensities can be detected at the corresponding positions), after the imaging, the nude mouse was transferred into the induction box again, and an oxygen valve was turned on to revive the nude mouse.
18 random numbers were generated by Excel software, the random numbers were corresponding to the numbers of the nude mice, and the nude mice were equally divided into model groups according to the size of the random numbers, namely a low-dose group (100 μg/kg), a middle-dose group (200 μg/kg) and a high-dose group (400 μg/kg). After random grouping, the nude mice were weighed and the tumor volume was measured. […]

Data set [3] has as its system p53. Nature of the data set: Western blot of tumor tissue, p53. It counts as in vivo, nude mice. Conditions: FIG. 7. On the procedure: (§3) After the tumor tissue was thawed on ice, 50 mg of tumor tissue was taken into a tissue homogenization tube, and 500 μL of tissue lysate containing protease inhibitors and phosphatase inhibitors was added (usage of Roche brand tablets: 1 tablet/10 mL). After high-speed homogenization, centrifugation was performed at 12,000 rpm/min for 15 min, the supernatant was taken, and the protein concentration of the sample was measured by a BCA method. After the concentration of each sample was adjusted to the same, a protein loading buffer (5× Loading buffer) was added, denaturation was performed at 100° C. for 10 min, and preservation was performed at −80° C.
(§4) An appropriate brand of 10% pre-mixed polyacrylamide gel preparation solution was selected, and then, the gel (including separating gel and stacking gel) used in the experiment was prepared according to the instructions for use, which takes about 2 h. In the process of waiting for gel solidification, an SDS-PAGE gel electrophoresis solution was prepared in advance, the prepared gel was put in an electrophoresis tank, then the electrophoresis solution was added, and 10-30 μL of sample was added to each well of loading slot. After the sample runs through the stacking gel at a low pressure of 80 V, the voltage was adjusted to 100 V to make the sample run through the entire block of gel, so as to complete the SDS-PAGE gel electrophoresis operation. Secondly, a membrane transfer operation was performed (a PVDF membrane was pre-wetted in methanol for 5 min in advance), and membrane transfer conditions were: 300 mA, 120-150 min (corresponding to the time selection of the dividing line with a molecular weight of 100 kDa, wherein the selected membrane transfer time of the separated protein with a molecular weight less than 100 kDa was 120 min, and the selected membrane transfer time of the separated protein with a molecular weight greater than 100 kDa was 150 min). […] An ECL luminescent solution was used as a substrate to expose the target band, and the results were analyzed, recorded and counted.

Data set [4] relates to Huh7 cells. The data set is described as follows: Scratch test. The data set is classed as cell-based. To be noted: 50 nM, 24 and 48 h, serum-free medium; P<0.05; FIG. 11. The method, then: Huh7 cells in the logarithmic growth phase were taken and inoculated in a 24-well plate at 5×10^5 cells per well. After the cells were overgrown, a sterile pipette tip was used for scratching, the cells were washed 3 times with PBS after scratching, the scratched cells were removed, a serum-free medium containing 50 nM TPO was added to continue the culture for 24 and 48 h, and photographing was performed. The scratch photo was analyzed by Image J software, the scratch distance was calculated, and the scratch healing was evaluated.

Data set [5] deals with Caspase-3. Nature of the data set: Apoptosis-related proteins by western blot, Caspase-3 in BEL-7402 cells. The data set is classed as cell-based. To be noted: BEL-7402 cells, 0, 50 and 100 nM, 24 h, FIG. 10 B. The method, then: (§5) 2.4 Detection of Apoptosis-Related Proteins by Western Blot
(§6) BEL-7402 cells in the logarithmic growth phase were taken and inoculated in a 12-well plate at 5×10^5 cells per well. The cells treated with TPO with final concentrations of 0, 50 and 100 nM were used. After 24 h of treatment, the cells were collected, then lysate was added, and total proteins were extracted after sufficient lysis on ice. After the protein concentration was measured by a BCA method, the Loading buffer was added and boiled at 100° C. for 10 min to fully denature the proteins. The denatured sample was subjected to SDS-PAGE gel electrophoresis and electrically transferred to a PVDF membrane. The transferred PVDF membrane was sealed with a 5% BSA solution in TBST at a room temperature for 1 h, then incubated overnight with the corresponding primary antibody at 4° C., washed with TBST, incubated with the secondary antibody at a room temperature for 2 h, and washed with TBST again.
(§7) Finally, an ECL chemiluminescent solution was added to make the membrane strip emit light, electrophoresis results were obtained by pressing, developing and fixing with photosensitive films, and the change trends of apoptosis-related proteins among different treatment groups were observed.

For data set [6], the system named is Hep3B liver cancer cells. Nature of the data set: Cell apoptosis by flow cytometry, Hep3B. It counts as cell-based. Conditions: Hep3B, 0, 50 and 100 nM, 24 h, FIG. 10 A. On the procedure: as §1, §2
Data set [7] relates to LO2 cells. Nature of the data set: Cell toxicity experiment (LDH activity of culture supernatant). The data set is classed as cell-based. To be noted: normal liver cells, 0, 10, 50 and 100 nM, 24 h; FIG. 8. The method, then:
2.1 Cell Toxicity Experiment
Logarithmically growing LO2 cells were taken and inoculated in a 96-well plate at 1×10^4 cells per well. The cells treated with drugs with final concentrations of 0, 10, 50 and 100 nM were used respectively, the culture supernatant was collected after 24 h, and the LDH activity of the culture supernatant was detected by the Roche biochemical analyzer.

Data set [8] deals with caspase-3. Nature of the data set: Western blot of tumor tissue, caspase-3. It counts as in vivo, nude mice. To be noted: FIG. 7. On the procedure:
as §3, §4

For data set [9], the system named is SMMC-7721 liver cancer cells. The data set is described as follows: Cell proliferation by MTT method, SMMC-7721. To be noted: SMMC-7721, 10, 25, 50, 100 nM, 24 h, FIG. 9. The data set is classed as cell-based. The method, then: (§8) 2.2 Detection of Cell Proliferation by MMT Method
(§9) When the liver cancer cells grew to the logarithmic phase, the single cell suspension was inoculated in a 96-well plate at 1×10^4 cells per well. A blank group was a DMEM medium containing 10% fetal bovine serum, a control group was a solvent-added control (DMSO) cell group, and an experimental group was a cell group treated with drugs with different final concentrations (10, 25, 50, 100 nM). After 24 h of treatment, the medium supernatant was carefully aspirated, and 100 μL of MTT solution with a final concentration of […] diluted with the medium was added to each well. After the cells were cultured for 4 h, the medium was discarded, 150 μL of DMSO solution was added to each well, and shaking was performed at a low speed on the shaker for 10 min in the dark. After the crystals were fully dissolved, the absorbance (A) of each well was detected at 490 nm with the microplate reader. Cell proliferation inhibition rate=[(control group A450-blank group A450)−(experimental group A450−blank group A450)/(control group A450−blank group A450)]×100%.

In data set [10] the test system is Hep3B liver cancer cells. Nature of the data set: Cell proliferation by MTT method, Hep3B. The data set is classed as cell-based. To be noted: Hep3B, 10, 25, 50, 100 nM, 24 h, FIG. 9. On the procedure: as §8, §9
For data set [11], the system named is HepG2 liver cancer cells. Nature of the data set: Cell proliferation by MTT method, HepG2. The data set is classed as cell-based. Conditions: HepG2, 10, 25, 50, 100 nM, 24 h, FIG. 9. The method, then: as §8, §9
For data set [12], the system named is PARP. The data set is described as follows: Apoptosis-related proteins by western blot, PARP in BEL-7402 cells. To be noted: BEL-7402 cells, 0, 50 and 100 nM, 24 h, FIG. 10 B. It counts as cell-based. The method, then: as §5, §6, §7
Data set [13] relates to caspase-8. Nature of the data set: Western blot of tumor tissue, caspase-8. The data set is classed as in vivo, nude mice. To be noted: FIG. 7. The method, then: as §3, §4
In data set [14] the test system is BEL-7402 liver cancer cells. Nature of the data set: Cell proliferation by MTT method, BEL-7402. It counts as cell-based. Conditions: BEL-7402, 10, 25, 50, 100 nM, 24 h, FIG. 9. On the procedure:
as §8, §9

On to `C=CC(=O)O[C@@H]1[C@@]2(C(C)C)O[C@H]2[C@@H]2O[C@]23[C@]12O[C@H]2C[C@H]1C2=C(CC[C@@]13C)C(=O)OC2` [triptolide acrylate], for which the “proportion of Annexin V and PI positive cells (induction of apoptosis)” value in data set [1] and in [6] was “significantly increased” throughout. In addition, in data set [2] (administration group (especially the high-dose group) vs model group, dose-dependent, FIG. 5), the “tumor volume (subcutaneous implanted tumor seen on skin surface)” value is on record as “significantly less than that of the model group”. Moreover, the “tumor volume of tumor tissues stripped after sacrifice” value in [2] (administration group vs model group, FIG. 6) was “less than that of the model group”. The “fluorescence signals in the tumors of the nude mice” value in data set [2] (each dose group (100, 200, 400 μg/kg), intraperitoneal injection once a day for 13 days, compared with the model group, dose-dependent, FIG. 4) is on record as “significantly weakened”. Besides, the “fluorescence signal in the tumors of the nude mice” value in data set [2] (high-dose group (400 μg/kg), intraperitoneal injection once a day for 13 days, FIG. 4) was “weakened more obviously”. The “protein expression quantity of p53” value is recorded as “significantly increase” in data set [3] (high-dose group (400 μg/kg)), “no significant change” in data set [3] (low-dose group (100 μg/kg)) and “no significant change” in data set [3] (middle-dose group (200 μg/kg)). In data set [4], the “migration of Huh7 cells (scratch healing)” value is on record as “significantly inhibit”. In addition, the “cleavage of Caspase-3” value in data set [5] was “significantly increased”. In [7], the “LDH activity of the culture supernatant of LO2 cells” value is reported as “significantly lower than that of the TPL treatment group”. Besides, the entries for the “protein expression quantity of caspase-3” value in data set [8] (high-dose group (400 μg/kg)), in data set [8] (low-dose group (100 μg/kg)) and in data set [8] (middle-dose group (200 μg/kg)) were “significantly increase”, “reduce” and “significantly increase”, respectively. Further, the “inhibiting effect on proliferation” value in data set [9], in data set [10], in data set [11] and in data set [14] was “significant inhibiting effect” each time. For the same molecule, the “cleavage of PARP” value in [12] is given as “significantly increased”. Besides, the “protein expression quantity of caspase-8” value in data set [13] (high-dose group (400 μg/kg)) is on record as “reduce”; in data set [13] (low-dose group (100 μg/kg)) it was “reduce”; in data set [13] (middle-dose group (200 μg/kg)), “significantly increase”.

“triptolide triol [TP-3-OH, reference compound]”: the “proportion of Annexin V and PI positive cells (induction of apoptosis)” value in data set [1] and in data set [6] was “not obvious” each time. Further, in data set [7], the “LDH activity of the culture supernatant of LO2 cells” value was “significantly lower than that of the TPL treatment group”. In addition, the “inhibiting effect on proliferation” value in [9], in data set [10], in data set [11] and in data set [14] was “no obvious inhibiting effect” in each case.
